Consider 19 substances from US20250243488A1, “METHODS OF MODULATING PROGRANULIN EXPRESSION USING ANTISENSE OLIGONUCLEOTIDES TARGETING REGULATORY RNAS” (Camp4 Therapeutics Corporation, priority 2022, published 2025).

Oligonucleotides are written 5' to 3', each unit as a sugar letter and its base; * is a phosphorothioate linkage, no mark a phosphodiester; rarer units and linkages stand in square brackets, end groups in braces. Plain capitals give the bases only. e = 2'-O-(2-methoxyethyl) (MOE); l = locked nucleic acid (LNA); [5mC] = 5-methylcytosine

This data set relates to mGrn mRNA. As to the kind of experiment: mGrn mRNA qPCR in Neuro2a cells transfected with ASOs. The following applies: transfection. Format: cell-based, mouse. On the technique in general: In qPCR the cycle at which signal appears reflects the starting amount.

Consider “CO-5296: CO-3544 modified to include PO/PS bonds (antisense eG*eT*eTe[5mC]eTe[5mC]e[5mC]e[5mC]eTeAeGe[5mC]eTeGeTeG*eT*eA*eG*eT)”, for which, where the note is “Table 15, Neuro2a”, the “40 nM FC (mGrn mRNA)” value worked out at 1.1 FC, the “80 nM FC (mGrn mRNA)” value was found to be 1.1 FC and the “160 nM FC (mGrn mRNA)” value is 1.0 FC.

Turning to “CO-5297: CO-3544 modified to include PO/PS bonds (antisense eG*eT*eTe[5mC]eTe[5mC]e[5mC]e[5mC]eTeAeGe[5mC]eTeG*eT*eG*eT*eA*eG*eT)”, where the note is “Table 15, Neuro2a”, the “40 nM FC (mGrn mRNA)” value was 1.0 FC, the “80 nM FC (mGrn mRNA)” value is on record as 1.1 FC and the “160 nM FC (mGrn mRNA)” value turned out to be 1.2 FC.

As to “CO-5298: CO-3544 modified to include PO/PS bonds (antisense eG*eT*eTe[5mC]eTe[5mC]e[5mC]e[5mC]eTeAeGe[5mC]*eT*eG*eT*eG*eT*eA*eG*eT)”, where the note is “Table 15, Neuro2a”, the “40 nM FC (mGrn mRNA)” value was found to be 1.3 FC, the “80 nM FC (mGrn mRNA)” value is listed as 1.3 FC and the “160 nM FC (mGrn mRNA)” value was found to be 1.5 FC.

Regarding “CO-5299: CO-3544 modified to include PO/PS bonds (antisense eG*eT*eTe[5mC]eTe[5mC]e[5mC]e[5mC]eTeA*eG*e[5mC]*eT*eGeT*eG*eT*eA*eG*eT)”, under “Table 15, Neuro2a”, the “40 nM FC (mGrn mRNA)” value is 1.2 FC, the “80 nM FC (mGrn mRNA)” value is 1.3 FC and the “160 nM FC (mGrn mRNA)” value was found to be 1.5 FC.

Regarding “CO-5300: CO-3544 modified to include PO/PS bonds (antisense eG*eT*eTe[5mC]eTe[5mC]e[5mC]e[5mC]*eT*eA*eG*e[5mC]*eT*eG*eT*eG*eT*eA*eG*eT)”, where the note is “Table 15, Neuro2a”, the “40 nM FC (mGrn mRNA)” value turned out to be 1.3 FC, the “80 nM FC (mGrn mRNA)” value is listed as 1.4 FC and the “160 nM FC (mGrn mRNA)” value came to 1.4 FC.

With “CO-5301: CO-3544 modified to include PO/PS bonds (antisense lG*lT*eT*l[5mC]*lT*e[5mC]*l[5mC]*e[5mC]*lT*eA*lG*e[5mC]*lT*eG*lT*eG*lT*eA*lG*lT)”, under “Table 15, Neuro2a”, the “40 nM FC (mGrn mRNA)” value turned out to be 0.9 FC, the “80 nM FC (mGrn mRNA)” value was 1.0 FC and the “160 nM FC (mGrn mRNA)” value is listed as 0.7 FC.

“CO-5302: CO-3544 modified to include PO/PS bonds (antisense lG*lT*eT*l[5mC]*eT*l[5mC]*e[5mC]*l[5mC]*eT*lA*eG*l[5mC]*eT*lG*eT*lG*lT*eA*lG*lT)”: for the setting “Table 15, Neuro2a”, the “40 nM FC (mGrn mRNA)” value is 1.3 FC, the “80 nM FC (mGrn mRNA)” value is 1.2 FC and the “160 nM FC (mGrn mRNA)” value was 1.0 FC.

With “CO-5303: CO-3595 modified to include varying PO/PS internucleotide bonds (antisense e[5mC]*e[5mC]*eTeGeAeAe[5mC]eTeGeTeAeTeGeGe[5mC]eTeG*eA*e[5mC]*e[5mC])”, under “Table 16, Neuro2A”, the “40 nM FC (mGrn mRNA)” value stood at 1.3 FC, the “80 nM FC (mGrn mRNA)” value is 1.6 FC and the “160 nM FC (mGrn mRNA)” value turned out to be 1.8 FC.

Take “CO-5304: CO-3595 modified to include varying PO/PS internucleotide bonds (antisense e[5mC]*e[5mC]*eT*eG*eAeAe[5mC]eTeGeTeAeTeGeGe[5mC]eTeG*eA*e[5mC]*e[5mC])”: for the setting “Table 16, Neuro2A”, the “40 nM FC (mGrn mRNA)” value came to 1.4 FC, the “80 nM FC (mGrn mRNA)” value amounted to 1.6 FC and the “160 nM FC (mGrn mRNA)” value is listed as 2.2 FC.

Consider “CO-5305: CO-3595 modified to include varying PO/PS internucleotide bonds (antisense e[5mC]*e[5mC]*eT*eG*eA*eA*e[5mC]eTeGeTeAeTeGeGe[5mC]eTeG*eA*e[5mC]*e[5mC])”, for which, where the note is “Table 16, Neuro2A”, the “40 nM FC (mGrn mRNA)” value was found to be 1.2 FC, the “80 nM FC (mGrn mRNA)” value worked out at 1.4 FC and the “160 nM FC (mGrn mRNA)” value was 1.6 FC.

Turning to “CO-5306: CO-3595 modified to include varying PO/PS internucleotide bonds (antisense e[5mC]*e[5mC]*eT*eG*eA*eA*e[5mC]*eT*eGeTeAeTeGeGe[5mC]eTeG*eA*e[5mC]*e[5mC])”, where the note is “Table 16, Neuro2A”, the “40 nM FC (mGrn mRNA)” value came out at 1.2 FC, the “80 nM FC (mGrn mRNA)” value worked out at 1.0 FC and the “160 nM FC (mGrn mRNA)” value amounted to 1.3 FC.

Take “CO-5307: CO-3595 modified to include varying PO/PS internucleotide bonds (antisense e[5mC]*e[5mC]*eT*eG*eA*eA*e[5mC]*eT*eG*eT*eAeTeGeGe[5mC]eTeG*eA*e[5mC]*e[5mC])”: under “Table 16, Neuro2A”, the “40 nM FC (mGrn mRNA)” value is listed as 1.0 FC, the “80 nM FC (mGrn mRNA)” value is 1.1 FC and the “160 nM FC (mGrn mRNA)” value is recorded as 1.1 FC.

For the substance “CO-5308: CO-3595 modified to include varying PO/PS internucleotide bonds (antisense e[5mC]*e[5mC]*eT*eG*eA*eA*e[5mC]*eT*eG*eT*eA*eT*eGeGe[5mC]eTeG*eA*e[5mC]*e[5mC])”, where the note is “Table 16, Neuro2A”, the “40 nM FC (mGrn mRNA)” value was 1.3 FC, the “80 nM FC (mGrn mRNA)” value is 1.4 FC and the “160 nM FC (mGrn mRNA)” value is on record as 2.0 FC.

Turning to “CO-5309: CO-3595 modified to include varying PO/PS internucleotide bonds (antisense e[5mC]*e[5mC]*eTeGeAeAe[5mC]eTeGeTeAeTeGeGe[5mC]eT*eG*eA*e[5mC]*e[5mC])”, under “Table 16, Neuro2A”, the “40 nM FC (mGrn mRNA)” value is reported as 1.3 FC, the “80 nM FC (mGrn mRNA)” value is 1.7 FC and the “160 nM FC (mGrn mRNA)” value is recorded as 2.0 FC.

Take “CO-5310: CO-3595 modified to include varying PO/PS internucleotide bonds (antisense e[5mC]*e[5mC]*eTeGeAeAe[5mC]eTeGeTeAeTeGeG*e[5mC]*eT*eG*eA*e[5mC]*e[5mC])”: where the note is “Table 16, Neuro2A”, the “40 nM FC (mGrn mRNA)” value worked out at 1.1 FC, the “80 nM FC (mGrn mRNA)” value was found to be 1.1 FC and the “160 nM FC (mGrn mRNA)” value is reported as 1.3 FC.

As to “CO-5311: CO-3595 modified to include varying PO/PS internucleotide bonds (antisense e[5mC]*e[5mC]*eTeGeAeAe[5mC]eTeGeTeAeT*eG*eG*e[5mC]*eT*eG*eA*e[5mC]*e[5mC])”, under “Table 16, Neuro2A”, the “40 nM FC (mGrn mRNA)” value is given as 1.5 FC, the “80 nM FC (mGrn mRNA)” value was found to be 1.7 FC and the “160 nM FC (mGrn mRNA)” value was 1.7 FC.

Consider “CO-5312: CO-3595 modified to include varying PO/PS internucleotide bonds (antisense e[5mC]*e[5mC]*eTeGeAeAe[5mC]eTeGeT*eA*eT*eG*eG*e[5mC]*eT*eG*eA*e[5mC]*e[5mC])”, for which, where the note is “Table 16, Neuro2A”, the “40 nM FC (mGrn mRNA)” value is listed as 1.5 FC, the “80 nM FC (mGrn mRNA)” value turned out to be 1.7 FC and the “160 nM FC (mGrn mRNA)” value was determined as 1.8 FC.

As for “CO-5313: CO-3595 modified to include varying PO/PS internucleotide bonds (antisense e[5mC]*e[5mC]*eTeGeAeAe[5mC]eT*eG*eT*eA*eT*eG*eG*e[5mC]*eT*eG*eA*e[5mC]*e[5mC])”, for the setting “Table 16, Neuro2A”, the “40 nM FC (mGrn mRNA)” value was 1.3 FC, the “80 nM FC (mGrn mRNA)” value stood at 1.4 FC and the “160 nM FC (mGrn mRNA)” value was 1.5 FC.

Consider “CO-5314: CO-3595 modified to include varying PO/PS internucleotide bonds (antisense l[5mC]*l[5mC]*eT*lG*lA*eA*l[5mC]*eT*lG*eT*lA*eT*lG*eG*l[5mC]*eT*lG*eA*l[5mC]*l[5mC])”, for which, for the setting “Table 16, Neuro2A”, the “40 nM FC (mGrn mRNA)” value is 1.5 FC, the “80 nM FC (mGrn mRNA)” value came out at 1.7 FC and the “160 nM FC (mGrn mRNA)” value was found to be 1.5 FC.
